Measured values taken from ChEMBL document CHEMBL1212919, “An efficient approach to the discovery of potent inhibitors against glycosyltransferases” (J Med Chem, 2010).

Tests used:
[1] = Inhibition of alpha-(1,3)-fucosyltransferase after 60 mins by Lineweaver-Burke plot analysis
[2] = Inhibition of alpha-(1,6)-fucosyltransferase after 60 mins by Lineweaver-Burke plot analysis
[3] = biological target: T1, CMP-N-acetylneuraminate-beta-1,4-galactoside alpha-2,3-sialyltransferase (Rattus norvegicus, UniProt Q02734); test: Inhibition of rat recombinant alpha 2,3-(N)-sialyltransferase 3
T1 sequence (Q02734 whole entry): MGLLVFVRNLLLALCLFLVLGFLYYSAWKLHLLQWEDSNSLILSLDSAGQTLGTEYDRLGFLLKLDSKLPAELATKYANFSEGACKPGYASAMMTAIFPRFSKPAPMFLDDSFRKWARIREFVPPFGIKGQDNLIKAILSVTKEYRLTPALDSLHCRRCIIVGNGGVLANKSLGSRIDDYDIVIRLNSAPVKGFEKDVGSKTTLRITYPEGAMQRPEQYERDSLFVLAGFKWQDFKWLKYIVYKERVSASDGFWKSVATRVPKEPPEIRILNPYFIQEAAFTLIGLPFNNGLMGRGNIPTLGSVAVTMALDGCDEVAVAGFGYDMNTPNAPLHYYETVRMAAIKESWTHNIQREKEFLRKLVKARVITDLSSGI

Description for Rattus norvegicus: Inhibition of rat recombinant alpha 2,6-(N)-sialyltransferase 1 by Lineweaver-Burke plot analysis

C[C@]12CC[C@@H]3c4ccc(O)cc4CC[C@H]3[C@@H]1CC[C@@]2(O)c1cn(C[C@@H]2O[C@H](OP(=O)(O)OP(=O)(O)OC[C@H]3O[C@@H](n4cnc5c(=O)[nH]c(N)nc54)[C@H](O)[C@@H]3O)[C@@H](O)[C@H](O)[C@@H]2O)nn1
Ki [1]: 0.293 µM

CCCCCc1ccc(-c2cn(C[C@@H]3O[C@H](OP(=O)(O)OP(=O)(O)OC[C@H]4O[C@@H](n5cnc6c(=O)[nH]c(N)nc65)[C@H](O)[C@@H]4O)[C@@H](O)[C@H](O)[C@@H]3O)nn2)cc1
Ki [2]: 13.8 µM

C[C@]12CC[C@@H]3c4ccc(O)cc4CC[C@H]3[C@@H]1CC[C@@]2(O)c1cn(CC(=O)N[C@H]2[C@H]([C@H](O)[C@H](O)CO)O[C@](OP(=O)(O)OC[C@H]3O[C@@H](n4ccc(N)nc4=O)[C@H](O)[C@@H]3O)(C(=O)O)C[C@@H]2O)nn1
IC50 [3]: 8.2 µM
Km (Rattus norvegicus): 125 µM
